Experimental data taken from paper PMC4494927, “Discovery of a small molecule targeting SET-PP2A interaction to overcome BCR-ABLT315I mutation of chronic myeloid leukemia” (Oncotarget, 2015).

Assays:
Assay in all cases: In vitro kinase assay (Kinase-Glo / ADP-Glo)
Type in all cases: biochemical
ABL2 = ABL2 (Homo sapiens, UniProt P42684); details: TGI1002 1 µM; means of two independent experiments; read-out: Inhibitory effect (%)
Method: (§1) All kinase reactions were carried out in 384-well plates. After addition of the compounds, kinase and ATP-substrate were added to the assay plates successively, the assay plates were centrifuged at 1,000 x g for 1 min and incubated for 1 h at 30 °C. Then, Kinase-Glo Plus or ADP-Glo reagent was added to each well. In Kinase-Glo assay, after addition of the reagent for 20 min, the luminescence was measured on an EnVision Multilabel Plate Reader (Perkin-Elmer). In ADP-Glo assay, after addition of the reagent for 40 min, Kinase Detection Reagent was added and incubated for another 30 min at 27 °C, and then the luminescence was measured. Kinase inhibition rates were calculated per manufacturer's instructions.

AKT3 = AKT3 (Homo sapiens, UniProt Q9Y243); details: TGI1002 1 µM; means of two independent experiments; read-out: Inhibitory effect (%)
Method: as §1

ALK = ALK (Homo sapiens, UniProt Q9UM73); details: TGI1002 1 µM; means of two independent experiments; read-out: Inhibitory effect (%)
Method: as §1

AMPK (A2/B1/G1) = AMPK (A2/B1/G1) (Homo sapiens, UniProt P54646); details: TGI1002 1 µM; means of two independent experiments; read-out: Inhibitory effect (%)
Method: as §1

Aurora A = Aurora A (Homo sapiens, UniProt O14965); details: TGI1002 1 µM; means of two independent experiments; read-out: Inhibitory effect (%)
Method: as §1

Aurora B = Aurora B (Homo sapiens, UniProt Q96GD4); details: TGI1002 1 µM; means of two independent experiments; read-out: Inhibitory effect (%)
Aurora B, sequence (Q96GD4 whole entry): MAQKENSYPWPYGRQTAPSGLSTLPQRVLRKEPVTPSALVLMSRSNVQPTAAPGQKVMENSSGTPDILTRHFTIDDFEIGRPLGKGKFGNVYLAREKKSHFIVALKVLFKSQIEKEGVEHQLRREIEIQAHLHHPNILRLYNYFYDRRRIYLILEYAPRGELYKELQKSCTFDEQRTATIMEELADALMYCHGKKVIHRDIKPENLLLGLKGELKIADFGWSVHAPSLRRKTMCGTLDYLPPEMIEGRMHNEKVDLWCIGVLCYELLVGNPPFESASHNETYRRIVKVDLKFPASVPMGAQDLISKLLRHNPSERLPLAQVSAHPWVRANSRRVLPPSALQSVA
Method: as §1

BRAF = BRAF (Homo sapiens, UniProt P15056); details: TGI1002 1 µM; means of two independent experiments; read-out: Inhibitory effect (%)
Method: as §1

CDK1/CyclinA2 = CDK1/CyclinA2 (Homo sapiens, UniProt P06493); details: TGI1002 1 µM; means of two independent experiments; read-out: Inhibitory effect (%)
Method: as §1

CDK1/CyclinB = CDK1/CyclinB (Homo sapiens, UniProt P06493); details: TGI1002 1 µM; means of two independent experiments; read-out: Inhibitory effect (%)
Method: as §1

CDK2/CyclinA2 = CDK2/CyclinA2 (Homo sapiens, UniProt P24941); details: TGI1002 1 µM; means of two independent experiments; read-out: Inhibitory effect (%)
Method: as §1

CDK4/CyclinD1 = CDK4/CyclinD1 (Homo sapiens, UniProt P11802); details: TGI1002 1 µM; means of two independent experiments; read-out: Inhibitory effect (%)
CDK4/CyclinD1, sequence (P11802 whole entry): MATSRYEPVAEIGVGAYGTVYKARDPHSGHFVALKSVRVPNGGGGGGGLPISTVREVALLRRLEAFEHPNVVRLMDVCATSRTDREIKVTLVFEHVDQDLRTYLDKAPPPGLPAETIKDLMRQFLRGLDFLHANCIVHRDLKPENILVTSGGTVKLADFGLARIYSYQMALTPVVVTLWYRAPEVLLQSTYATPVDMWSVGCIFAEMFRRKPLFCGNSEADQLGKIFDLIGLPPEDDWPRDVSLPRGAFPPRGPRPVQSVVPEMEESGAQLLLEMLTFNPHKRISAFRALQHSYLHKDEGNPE
CDK4/CyclinD1, sequence (P24385 whole entry partner): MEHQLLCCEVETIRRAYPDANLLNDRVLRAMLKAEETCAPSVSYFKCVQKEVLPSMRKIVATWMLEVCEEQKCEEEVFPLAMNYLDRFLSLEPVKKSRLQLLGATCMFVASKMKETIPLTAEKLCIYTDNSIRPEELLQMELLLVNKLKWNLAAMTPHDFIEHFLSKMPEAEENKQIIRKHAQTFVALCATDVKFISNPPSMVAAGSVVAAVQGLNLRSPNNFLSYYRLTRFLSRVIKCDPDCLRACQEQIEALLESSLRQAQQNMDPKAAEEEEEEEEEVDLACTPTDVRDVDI
Method: as §1

CHK1 = CHK1 (Homo sapiens, UniProt O14757); details: TGI1002 1 µM; means of two independent experiments; read-out: Inhibitory effect (%)
Method: as §1

EGFR = EGFR (Homo sapiens, UniProt P00533); details: TGI1002 1 µM; means of two independent experiments; read-out: Inhibitory effect (%)
Method: as §1

EGFR(T790M,L858R) = EGFR(T790M,L858R) (Homo sapiens, UniProt P00533, L858R/T790M); details: TGI1002 1 µM; means of two independent experiments; read-out: Inhibitory effect (%)
Method: as §1

ERK1 = ERK1 (Homo sapiens, UniProt P27361); details: TGI1002 1 µM; means of two independent experiments; read-out: Inhibitory effect (%)
Method: as §1

ERK2(MAPK1) = ERK2(MAPK1) (Homo sapiens, UniProt P28482); details: TGI1002 1 µM; means of two independent experiments; read-out: Inhibitory effect (%)
ERK2(MAPK1), sequence (P28482 whole entry): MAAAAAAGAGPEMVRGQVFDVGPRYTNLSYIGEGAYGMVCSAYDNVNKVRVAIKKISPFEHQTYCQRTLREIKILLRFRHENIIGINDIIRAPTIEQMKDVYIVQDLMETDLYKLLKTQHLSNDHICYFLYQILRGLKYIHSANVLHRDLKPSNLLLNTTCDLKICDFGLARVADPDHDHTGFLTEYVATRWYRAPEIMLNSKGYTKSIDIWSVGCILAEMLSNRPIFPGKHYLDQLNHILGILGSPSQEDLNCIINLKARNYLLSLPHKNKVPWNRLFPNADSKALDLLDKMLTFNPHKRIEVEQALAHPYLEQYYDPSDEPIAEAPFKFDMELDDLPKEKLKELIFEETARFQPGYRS
Method: as §1

EphA1 = EphA1 (Homo sapiens, UniProt P21709); details: TGI1002 1 µM; means of two independent experiments; read-out: Inhibitory effect (%)
Method: as §1

EphB2 = EphB2 (Homo sapiens, UniProt P29323)
EphB2, sequence (P29323 19-1055, species assumed): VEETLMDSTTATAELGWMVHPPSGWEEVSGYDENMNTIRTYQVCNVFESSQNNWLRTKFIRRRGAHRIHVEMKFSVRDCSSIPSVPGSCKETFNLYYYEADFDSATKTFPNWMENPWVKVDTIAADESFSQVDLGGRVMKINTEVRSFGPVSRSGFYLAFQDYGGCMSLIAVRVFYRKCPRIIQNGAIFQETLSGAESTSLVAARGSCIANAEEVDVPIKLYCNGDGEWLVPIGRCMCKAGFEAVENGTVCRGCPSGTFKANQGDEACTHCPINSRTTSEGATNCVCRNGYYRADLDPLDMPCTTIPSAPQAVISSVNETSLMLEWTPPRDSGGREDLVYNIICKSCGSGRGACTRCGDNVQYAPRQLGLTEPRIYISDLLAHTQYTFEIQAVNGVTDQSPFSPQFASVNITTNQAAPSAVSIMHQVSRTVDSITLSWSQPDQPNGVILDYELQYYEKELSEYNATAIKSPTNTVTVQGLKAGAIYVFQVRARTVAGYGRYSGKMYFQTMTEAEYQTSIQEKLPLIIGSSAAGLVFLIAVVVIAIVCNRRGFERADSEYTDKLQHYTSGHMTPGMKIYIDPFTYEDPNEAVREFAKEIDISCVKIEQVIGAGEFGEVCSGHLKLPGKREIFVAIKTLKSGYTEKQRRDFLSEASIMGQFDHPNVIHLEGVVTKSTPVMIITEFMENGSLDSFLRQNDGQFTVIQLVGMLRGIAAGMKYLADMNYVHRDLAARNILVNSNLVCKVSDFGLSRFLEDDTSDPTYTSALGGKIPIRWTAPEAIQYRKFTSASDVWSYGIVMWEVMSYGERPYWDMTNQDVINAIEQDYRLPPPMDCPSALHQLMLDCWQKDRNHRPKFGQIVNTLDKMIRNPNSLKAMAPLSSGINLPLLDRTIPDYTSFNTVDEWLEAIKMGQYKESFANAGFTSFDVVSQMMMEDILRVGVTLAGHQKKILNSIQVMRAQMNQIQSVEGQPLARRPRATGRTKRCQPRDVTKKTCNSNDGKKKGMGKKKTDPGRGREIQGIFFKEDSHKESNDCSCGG
Method: as §1

FGR = FGR (Homo sapiens, UniProt P09769); details: TGI1002 1 µM; means of two independent experiments; read-out: Inhibitory effect (%)
Method: as §1

FLT3 = FLT3 (Homo sapiens, UniProt P36888); details: TGI1002 1 µM; means of two independent experiments; read-out: Inhibitory effect (%)
Method: as §1

IGF1R = IGF1R (Homo sapiens, UniProt P08069); details: TGI1002 1 µM; means of two independent experiments; read-out: Inhibitory effect (%)
Method: as §1

InsR = InsR (Homo sapiens, UniProt P06213); details: TGI1002 1 µM; means of two independent experiments; read-out: Inhibitory effect (%)
Method: as §1

JNK1 = JNK1 (Homo sapiens, UniProt P45983); details: TGI1002 1 µM; means of two independent experiments; read-out: Inhibitory effect (%)
Method: as §1

LCK = LCK (Homo sapiens, UniProt P06239); details: TGI1002 1 µM; means of two independent experiments; read-out: Inhibitory effect (%)
Method: as §1

NEK2 = NEK2 (Homo sapiens, UniProt P51955); details: TGI1002 1 µM; means of two independent experiments; read-out: Inhibitory effect (%)
NEK2, sequence (P51955 whole entry): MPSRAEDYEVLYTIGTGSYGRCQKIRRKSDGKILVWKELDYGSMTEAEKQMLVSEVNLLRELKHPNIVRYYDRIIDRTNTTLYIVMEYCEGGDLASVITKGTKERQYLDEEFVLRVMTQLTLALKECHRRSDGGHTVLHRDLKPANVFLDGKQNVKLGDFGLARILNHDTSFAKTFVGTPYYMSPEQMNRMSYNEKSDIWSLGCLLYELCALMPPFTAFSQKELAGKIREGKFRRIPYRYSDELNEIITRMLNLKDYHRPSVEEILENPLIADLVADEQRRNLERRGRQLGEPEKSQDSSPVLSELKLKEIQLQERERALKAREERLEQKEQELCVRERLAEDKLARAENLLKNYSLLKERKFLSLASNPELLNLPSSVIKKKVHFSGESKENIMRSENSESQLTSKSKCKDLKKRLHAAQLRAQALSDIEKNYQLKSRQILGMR
Method: as §1

PDGFRα = PDGFRα (Homo sapiens, UniProt P16234)
PDGFRα, sequence (P16234 24-1089, species assumed): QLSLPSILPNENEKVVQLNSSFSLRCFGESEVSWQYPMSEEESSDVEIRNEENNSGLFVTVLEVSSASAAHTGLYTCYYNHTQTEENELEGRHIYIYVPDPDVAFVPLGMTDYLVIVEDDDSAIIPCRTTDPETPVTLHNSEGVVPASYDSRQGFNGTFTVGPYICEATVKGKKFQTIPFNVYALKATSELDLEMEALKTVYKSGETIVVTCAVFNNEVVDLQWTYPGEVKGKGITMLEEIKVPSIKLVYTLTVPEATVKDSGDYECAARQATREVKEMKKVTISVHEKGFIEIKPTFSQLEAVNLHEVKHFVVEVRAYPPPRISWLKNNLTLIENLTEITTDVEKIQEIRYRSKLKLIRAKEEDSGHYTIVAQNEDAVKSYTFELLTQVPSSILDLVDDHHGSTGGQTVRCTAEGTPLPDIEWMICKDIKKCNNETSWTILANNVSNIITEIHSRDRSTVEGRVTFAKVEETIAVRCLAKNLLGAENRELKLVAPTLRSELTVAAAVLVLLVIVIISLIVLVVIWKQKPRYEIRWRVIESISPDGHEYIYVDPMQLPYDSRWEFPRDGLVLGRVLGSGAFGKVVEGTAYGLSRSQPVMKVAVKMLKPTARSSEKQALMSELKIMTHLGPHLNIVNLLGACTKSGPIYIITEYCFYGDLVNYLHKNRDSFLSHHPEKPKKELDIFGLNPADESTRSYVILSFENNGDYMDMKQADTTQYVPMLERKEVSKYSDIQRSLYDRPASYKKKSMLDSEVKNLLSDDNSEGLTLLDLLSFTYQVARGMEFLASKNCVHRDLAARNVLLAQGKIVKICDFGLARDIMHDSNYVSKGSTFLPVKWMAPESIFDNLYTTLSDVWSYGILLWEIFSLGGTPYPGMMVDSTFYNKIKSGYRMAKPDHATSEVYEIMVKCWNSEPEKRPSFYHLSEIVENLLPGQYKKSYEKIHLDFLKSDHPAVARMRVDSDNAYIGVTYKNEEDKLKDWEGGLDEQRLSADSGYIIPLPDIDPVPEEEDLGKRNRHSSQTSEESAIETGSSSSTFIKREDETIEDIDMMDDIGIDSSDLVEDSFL
Method: as §1

PI3Kα = PI3Kα (Homo sapiens, UniProt P42336); details: TGI1002 1 µM; means of two independent experiments; read-out: Inhibitory effect (%)
Method: as §1

PI3Kγ = PI3Kγ (Homo sapiens, UniProt P48736); details: TGI1002 1 µM; means of two independent experiments; read-out: Inhibitory effect (%)
Method: as §1

PI3Kδ = PI3Kδ (Homo sapiens, UniProt O00329); details: TGI1002 1 µM; means of two independent experiments; read-out: Inhibitory effect (%)
Method: as §1

PKCγ = PKCγ (Homo sapiens, UniProt P05129); details: TGI1002 1 µM; means of two independent experiments; read-out: Inhibitory effect (%)
Method: as §1

PKCξ = PKCξ (Homo sapiens, UniProt Q05513); details: TGI1002 1 µM; means of two independent experiments; read-out: Inhibitory effect (%)
Method: as §1

PLK3 = PLK3 (Homo sapiens, UniProt Q9H4B4); details: TGI1002 1 µM; means of two independent experiments; read-out: Inhibitory effect (%)
Method: as §1

RAF1 = RAF1 (Homo sapiens, UniProt P04049); details: TGI1002 1 µM; means of two independent experiments; read-out: Inhibitory effect (%)
Method: as §1

RET = RET (Homo sapiens, UniProt P07949); details: TGI1002 1 µM; means of two independent experiments; read-out: Inhibitory effect (%)
Method: as §1

SRC = SRC (Homo sapiens, UniProt P12931); details: TGI1002 1 µM; means of two independent experiments; read-out: Inhibitory effect (%)
Method: as §1

c-KIT = c-KIT (Homo sapiens, UniProt P10721); details: TGI1002 1 µM; means of two independent experiments; read-out: Inhibitory effect (%)
Method: as §1

c-KIT(V654A) = c-KIT(V654A) (Homo sapiens, UniProt P10721, V654A); details: TGI1002 1 µM; means of two independent experiments; read-out: Inhibitory effect (%)
Method: as §1

p38α = p38α (Homo sapiens, UniProt Q16539); details: TGI1002 1 µM; means of two independent experiments; read-out: Inhibitory effect (%)
Method: as §1

[1] = TGI1002 1 µM, means of two independent experiments, read-out: Inhibitory effect (%)

ABL2, sequence (P42684 whole entry): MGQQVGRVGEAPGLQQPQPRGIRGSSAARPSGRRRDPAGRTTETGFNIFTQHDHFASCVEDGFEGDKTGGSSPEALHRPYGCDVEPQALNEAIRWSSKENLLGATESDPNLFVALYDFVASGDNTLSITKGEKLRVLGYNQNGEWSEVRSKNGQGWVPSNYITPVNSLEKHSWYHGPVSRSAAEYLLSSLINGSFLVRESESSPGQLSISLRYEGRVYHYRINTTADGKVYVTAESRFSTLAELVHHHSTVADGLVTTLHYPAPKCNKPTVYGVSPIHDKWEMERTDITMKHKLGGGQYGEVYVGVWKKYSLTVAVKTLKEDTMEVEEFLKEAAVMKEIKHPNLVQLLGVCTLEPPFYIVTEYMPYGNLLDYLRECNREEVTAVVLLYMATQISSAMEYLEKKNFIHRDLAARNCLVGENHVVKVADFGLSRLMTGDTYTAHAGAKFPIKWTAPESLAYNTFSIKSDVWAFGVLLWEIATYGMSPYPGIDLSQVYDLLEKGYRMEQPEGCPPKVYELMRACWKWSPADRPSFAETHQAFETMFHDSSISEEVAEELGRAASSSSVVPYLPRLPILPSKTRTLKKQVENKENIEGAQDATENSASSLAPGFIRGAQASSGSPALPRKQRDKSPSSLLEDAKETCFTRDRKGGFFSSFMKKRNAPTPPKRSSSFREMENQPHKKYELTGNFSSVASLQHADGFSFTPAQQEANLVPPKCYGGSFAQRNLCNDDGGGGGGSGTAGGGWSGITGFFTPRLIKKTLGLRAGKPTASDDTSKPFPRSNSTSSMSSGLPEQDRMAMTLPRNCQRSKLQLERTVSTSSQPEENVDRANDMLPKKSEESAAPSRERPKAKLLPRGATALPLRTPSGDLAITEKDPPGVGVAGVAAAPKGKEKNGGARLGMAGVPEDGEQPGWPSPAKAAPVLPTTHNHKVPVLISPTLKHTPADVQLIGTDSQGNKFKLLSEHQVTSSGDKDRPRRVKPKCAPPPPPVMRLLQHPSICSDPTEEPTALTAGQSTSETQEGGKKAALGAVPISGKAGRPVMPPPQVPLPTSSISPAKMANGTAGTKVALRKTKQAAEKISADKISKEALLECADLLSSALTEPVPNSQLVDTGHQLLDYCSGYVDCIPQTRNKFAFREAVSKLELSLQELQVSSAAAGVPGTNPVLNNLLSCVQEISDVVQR

Cc1ccc(NC(=O)c2cccc(CN3CCN(C)CC3)c2)cc1Oc1nccc(-c2cccnc2)n1.Cl [TGI1002, N-(4-methyl-3-((4-(pyridin-3-yl)-pyrimidin-2-yl)oxy)phenyl)-3-((4-methylpiperazin-1-yl)methyl)benzamide hydrochloride]
inhibition at 1 µM (ABL2): 19.2%
inhibition at 1 µM (AKT3): 3.62%
inhibition at 1 µM (ALK): 4.27%
inhibition at 1 µM (AMPK (A2/B1/G1)): 2.57%
inhibition at 1 µM (Aurora A): 24.6%
inhibition at 1 µM (Aurora B): 0%
inhibition at 1 µM (BRAF): 2.3%
inhibition at 1 µM (CDK1/CyclinA2): 5.27%
inhibition at 1 µM (CDK1/CyclinB): 3.24%
inhibition at 1 µM (CDK2/CyclinA2): 1.54%
inhibition at 1 µM (CDK4/CyclinD1): 7.54%
inhibition at 1 µM (CHK1): 3.61%
inhibition at 1 µM (EGFR): 0%
inhibition at 1 µM (EGFR(T790M,L858R)): 8.74%
inhibition at 1 µM (ERK1): 0.01%
inhibition at 1 µM (ERK2(MAPK1)): 0%
inhibition at 1 µM (EphA1): 1.58%
IC50 (EphB2; EphB2 kinase activity): 1270 nM
inhibition at 1 µM (EphB2; [1]): 46.7%
inhibition at 1 µM (FGR): 7.53%
inhibition at 1 µM (FLT3): 2.97%
inhibition at 1 µM (IGF1R): 8.65%
inhibition at 1 µM (InsR): 3.7%
inhibition at 1 µM (JNK1): 0.2%
inhibition at 1 µM (LCK): 5.82%
inhibition at 1 µM (NEK2): 1.56%
IC50 (PDGFRα; PDGFRα kinase activity): 3280 nM
inhibition at 1 µM (PDGFRα; [1]): 43.5%
inhibition at 1 µM (PI3Kα): 2.66%
inhibition at 1 µM (PI3Kγ): 2.65%
inhibition at 1 µM (PI3Kδ): 0.71%
inhibition at 1 µM (PKCγ): 0.79%
inhibition at 1 µM (PKCξ): 13.3%
inhibition at 1 µM (PLK3): 4.71%
inhibition at 1 µM (RAF1): 5.37%
inhibition at 1 µM (RET): 12.2%
inhibition at 1 µM (SRC): 1.09%
inhibition at 1 µM (c-KIT): 15.2%
inhibition at 1 µM (c-KIT(V654A)): 11.7%
inhibition at 1 µM (p38α): 2.17%
